Measured values taken from US20040132817A1, “Use of an histone deacetylase inhibitor for the treatment of diseases associated with an hpv infection” (priority 2001, published 2004).

Assays:
[1] = test system: E2F-1; experiment: Western blot of E2F-1 in HPV16-immortalized keratinocytes; assay type: cell-based; settings: HPV16-immortalized human keratinocytes, 6 mM sodium butyrate, 16 hours
Experimental: Western blot analysis of cellular extracts obtained from E6-, E7-, and E6/E7-Immortalized cells which were separated in 8% (pRb) and 12% SDS-PAGE gels. After electrotransfer, the filters were incubated with pRb, E2F-1, cyclin E and actin antibodies. […] Due to quantitative differences of pRb and cyclin E levels in E7- and E6/E7-positive cells, the filters were exposed for different times.
HPV18-positive cervical Carcinoma cells (HeLa) were maintained in Dulbecco's modified Eagle's medium (DMEM), supplemented with 10% fetal calf serum (Gibco BRL, Rockville, USA), 1% penicillin and streptomycin (Sigma, Deisenhofen, Deutschland). Primary human keratinocytes, immortalized by E6-, E7- and E6/E7-open reading frames carrying amphotroptic retroviruses were cultivated in “Keratinocyte Medium Kit” (Sigma). Human foreskin keratinocytes transformed with HPV-16 E6/E7 either under the control of a human β-actin promoter (,1321″) or under the control of the authentic upstream regulatory region HPV (,1637″) were a kind gift of Dr. R. Schlegel (Georgetown University, Washington, USA) (Münger et al., J. Virol. 63 (1989), 4414-4423; Villa & Schlegel, Virology 181 (1991), 374-377). Cells were grown in 3 parts of keratinocyte-serum free medium (K-SFM, GIBCO, BRL) and 1 part of DMEM containing 10% fetal calf serum (GIBCO, BRL) and 0.75% gentamycin, 0.25% penicillin/streptomycin, respectively […]

[2] = test system: cdk2 complex; experiment: Western blot analysis of cdk2 immunoprecipitates from "1321" and "1637" keratinocytes; assay type: cell-based, human; settings: "1321" and "1637" cells, 6 mM sodium butyrate, 16 hours
Experimental: (A) Upper panel: cdk2 complexes were immunoprecipitated and assayed for their activity using histone H1 as substrate. Lower panels: Western blot analysis of the cdk 2 complexes. Filters were incubated with specific antibodies against p21^CIP1 (=p21) and p27^KIP1 (=p27). Equal precipitation and loading was controlled by incubation with a cdk 2 antibody.
For cell fractionation, cell monolayers were washed twice with PBS and harvested by trypsinisation. Cell extract preparation and cdk2 activity assays were exactly done as described by Blomberg and Hoffmann, Mol. Cell. Biol. 19 (1999), 6183-6194. In addition, cdk2 was immunoprecipitated and analyzed by immunoblotting. Beads used for cdk2 kinase assay were washed 3 times with lysis buffer (Blomberg and Hoffmann, 1999), incubated with Laemmli sample buffer and boiled for 5 min. Supernatant was analyzed by SDS-PAGE gels. Immunoblotting was carried out with the following antibodies: p21^CIP1 (C24420) and p27^KIP1 (K25020; Transduction Laboratories) or HPV18-E7 (N-19; Santa Cruz, Inc.). Cdk2 specific antibodies or preimmune serum were kindly provided by I. Hoffmann (DKFZ, Heidelberg).

[3] = test system: p21^CIP1 mRNA; experiment: Northern blot of p21^CIP1 in "1637" keratinocytes; assay type: cell-based, human; settings: "1637" cells, six hours following NaB addition
Experimental: Keratinocytes immortalized with HPV16 E6/E7 either under control of (A) the homologues viral upstream regulatory region (,1637″) or (B) of the β-actin promoter (,1321″) were incubated with NaB for various periods of time. 5 μg of RNA was separated in 1% agarose gels. The filters were hybridized with probes specific for HPV16, p21^CIP1 (=p21), β-actin and GAPDH. The positions of the 28S and 18S ribosomal RNA are indicated. (Contr.): untreated cells.
Total cellular RNA was extracted according to the guanidinium-thiocyanate procedure (Chomczynski and Sacchi, Anal. Biochem. 162 (1987), 156-159). Approximately 5 μg RNA were separated on 1% agarose gels in the presence of ethidium bromide under non-denaturing conditions and transferred to GeneScreen Plus membranes (DuPont, Bad Homburg, Deutschland). The filters were hybridized under stringent conditions with specific probes, which were labeled with ^32p-dCTP by random priming (Feinberg and Vogelstein, Anal. Biochem. 137 (1984), 266-267).

[4] = test system: cdk6; experiment: Western blot of cdk6 in HeLa cells; assay type: cell-based, human; settings: 6 mM sodium butyrate, 16 hours
Experimental: 50 μg of protein were separated on 12% SDS-PAGE minigels. After electrotransfer, the filters were incubated with antibodies against cyclin D1, cyclin E, cyclin A or cdk2, cdk4 or cdk6 specific antibodies. Equal protein loading was confirmed by reincubating the filters with a monoclonal actin antibody.
(§1) Cellular extracts were separated in 8-12% SDS PAGE gels and electrotransferred as described elsewhere (Finzer et al., Oncogene 19 (2000), 3235-3244; Soto et al., Oncogene 18 (1999), 3187-3198). The following antibodies were used: cyclin E (HE 12), cyclin D 1 (HD 11), cdk2 (M2), (D-12; Santa Cruz Biotechnology, Inc., Santa Cruz, USA), cdk4 (C-22), cdk6 (C-21), p27^KIP1 (C-19), (K25020), p45^SKP2 (N-19), HPV18-E7 (N-19) and E2F-1 (KH95) (Santa Cruz Biotechnology, Inc. Santa Cruz, USA), p21^CIP1 (C24420; Transduction Laboratories, Lexington, USA), pRB (NCL-RB; Novocastra, UK), p16^INK4 (15126E, Pharmingen, San Diego, USA) and HPV 16 E7 (ZYMED Lab. Inc., San Francisco, USA). Cyclin A was kindly provided by M. Pagano (Pagano et al., EMBO J. 11 (1992), 961-971). Equal protein transfer and loading was routinely checked by incubating the filters with a monoclonal actin antibody (ICN Biomedicals, Ohio, USA).

[5] = test system: HPV 16 E7; experiment: Western blot of HPV 16 E7 in "1321" and "1637" keratinocytes; assay type: cell-based, HPV16; settings: "1321" and "1637" cells, 16 hours after NaB application
Experimental: (B) 75 μg of protein was separated in 12% SDS-PAGE gels as described above (see FIG. 2).
as §1

[6] = test system: HPV18 E7; experiment: Western blot of HPV18 E7 in HeLa cells; assay type: cell-based
Experimental: (C) Western blot analysis. 75 μg of total cellular protein was loaded on a 12% SDS-PAGE gel. After electrotransfer, the filters were consecutively incubated with HPV18 E7 and a monoclonal actin antibody.
(A) Western blot analysis. 75 μg of total cellular protein was loaded on a 12% SDS-PAGE gel. After electrotransfer, the filters were incubated with antibodies directed against HPV18 E7, p21^CIP1 (=p21), p27^KIP1 (=p27) and cdk2.
as §1

CCCC(=O)[O-].[Na+] [sodium butyrate]
E2F-1 level [1]: did not significantly vary | p21^CIP1 and p27^KIP1 co-precipitated with cdk2 [2]: high amounts of co-precipitated | p21CIP1 expression [3]: augmented | cdk6 expression [4]: neither the cyclin-dependent kinase 2 (cdk2) nor cdk4 or cdk6 revealed any significant influence on their expression rates | HPV 16 E7 protein compared with controls [5]: equal amounts | HPV18 E7 oncoprotein expression under growth arrest ([6]; 6 mM sodium butyrate, 16 hours): E7 oncogene-expression could be discerned | HPV18 E7 oncoprotein, time course ([6]; NaB, six hours after application): significant reduction
